{"source": "paper PMC7084345", "about": "“Differential Inhibitory Actions of Multitargeted Tyrosine Kinase Inhibitors on Different Ionic Current Types in Cardiomyocytes” (International Journal of Molecular Sciences, 2020)", "biological_target": "T1, KV7.1 (KCNQ1) channel, IK(S) (Rattus norvegicus, UniProt Q9Z0N7)", "T1 construct": "native IK(S) in H9c2 cells", "T1 sequence (Q9Z0N7 1-669)": "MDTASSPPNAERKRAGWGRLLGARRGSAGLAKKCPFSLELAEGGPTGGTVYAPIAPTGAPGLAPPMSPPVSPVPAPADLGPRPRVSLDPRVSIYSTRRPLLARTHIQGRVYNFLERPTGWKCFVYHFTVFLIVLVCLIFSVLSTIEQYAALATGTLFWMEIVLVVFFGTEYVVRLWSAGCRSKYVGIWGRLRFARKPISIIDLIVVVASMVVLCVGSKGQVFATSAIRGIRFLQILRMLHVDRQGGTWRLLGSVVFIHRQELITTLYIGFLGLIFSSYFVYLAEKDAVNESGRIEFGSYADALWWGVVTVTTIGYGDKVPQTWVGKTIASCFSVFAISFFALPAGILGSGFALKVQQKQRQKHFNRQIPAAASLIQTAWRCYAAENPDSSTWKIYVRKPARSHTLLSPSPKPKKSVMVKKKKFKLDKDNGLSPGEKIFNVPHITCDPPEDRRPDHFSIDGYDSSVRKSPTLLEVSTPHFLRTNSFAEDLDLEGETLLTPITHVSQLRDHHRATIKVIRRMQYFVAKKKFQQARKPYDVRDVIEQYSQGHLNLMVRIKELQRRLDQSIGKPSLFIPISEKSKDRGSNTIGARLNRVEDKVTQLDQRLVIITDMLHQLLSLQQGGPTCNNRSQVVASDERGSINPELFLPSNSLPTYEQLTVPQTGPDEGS", "assay": "whole-cell patch clamp of native IK(S) in H9c2 cells", "format": "cell-based", "data": [{"smiles": "CS(=O)(=O)CCNCc1ccc(-c2ccc3ncnc(Nc4ccc(OCc5cccc(F)c5)c(Cl)c4)c3c2)o1", "note": "[LAP, lapatinib]", "values": [{"measurement": "IC50", "value": 1840, "unit": "nM"}]}]}
